Results from patent publication US20180117006A1, “ANTI-FUGETACTIC AGENT AND IMMUNOTHERAPY AGENT COMBINATION THERAPY AND COMPOSITIONS FOR THE TREATMENT OF CANCER” (THE GENERAL HOSPITAL CORPORATION, priority 2015, published 2018).

Tested on: tumor that expresses high levels of CXCL12
Assay: Tumor growth in mice with a subcutaneous CXCL12-expressing tumor
Format: in vivo
Conditions: AMD3100 subcutaneous once a day for 5 days, then NK-92 cells intraperitoneal one to three days after the final dose, contemplated synergistic effect
Experimental: Mice are injected with tumor cells (subcutaneous injection) from a tumor that expresses high levels of CXCL12 and a tumor allowed to develop. Once the tumor has formed, the mice are injected (subcutaneous in the same flank as the tumor) with AMD3100 or vehicle, once a day for 5 days.
One to three days after the final dose of AMD3100, mice are injected via intraperitoneal injection with NK-92 cells or vehicle 18 hours prior to assay of tumor growth. Tumor growth in mice is delayed by NK-92 cell treatment, but resumes soon after the treatment is discontinued in mice that were not administered AMD3100.

c1cc(CN2CCCNCCNCCCNCC2)ccc1CN1CCCNCCNCCCNCC1 [AMD3100]
Delay in tumor growth (co-treatment): longer than NK-92 cells alone
